In US20260224588A1, “BENZODIAZEPINONE-DERIVED INHIBITORS OF EGFR AND HER2” (The Research Foundation for the State University of New York, priority 2023, published 2026):

Legend:
Experiment in all cases: KINOMEscan
Type in all cases: binding
Details in all cases: 1 μM of compound 4; read-out: POC
PFTAIRE2 = biological target: T1, PFTAIRE2 (Homo sapiens, UniProt Q96Q40)
T1 construct: purchased Eurofins DiscoverX Corporation (KINOMEscan)

MET = MET (Homo sapiens, UniProt P08581)
EGFR(L861Q) = biological target: T2, EGFR(L861Q) (Homo sapiens, UniProt P00533, L861Q)
T2 construct: purchased Eurofins DiscoverX (KINOMEscan service)
T2 sequence (P00533 25-1210 L861Q): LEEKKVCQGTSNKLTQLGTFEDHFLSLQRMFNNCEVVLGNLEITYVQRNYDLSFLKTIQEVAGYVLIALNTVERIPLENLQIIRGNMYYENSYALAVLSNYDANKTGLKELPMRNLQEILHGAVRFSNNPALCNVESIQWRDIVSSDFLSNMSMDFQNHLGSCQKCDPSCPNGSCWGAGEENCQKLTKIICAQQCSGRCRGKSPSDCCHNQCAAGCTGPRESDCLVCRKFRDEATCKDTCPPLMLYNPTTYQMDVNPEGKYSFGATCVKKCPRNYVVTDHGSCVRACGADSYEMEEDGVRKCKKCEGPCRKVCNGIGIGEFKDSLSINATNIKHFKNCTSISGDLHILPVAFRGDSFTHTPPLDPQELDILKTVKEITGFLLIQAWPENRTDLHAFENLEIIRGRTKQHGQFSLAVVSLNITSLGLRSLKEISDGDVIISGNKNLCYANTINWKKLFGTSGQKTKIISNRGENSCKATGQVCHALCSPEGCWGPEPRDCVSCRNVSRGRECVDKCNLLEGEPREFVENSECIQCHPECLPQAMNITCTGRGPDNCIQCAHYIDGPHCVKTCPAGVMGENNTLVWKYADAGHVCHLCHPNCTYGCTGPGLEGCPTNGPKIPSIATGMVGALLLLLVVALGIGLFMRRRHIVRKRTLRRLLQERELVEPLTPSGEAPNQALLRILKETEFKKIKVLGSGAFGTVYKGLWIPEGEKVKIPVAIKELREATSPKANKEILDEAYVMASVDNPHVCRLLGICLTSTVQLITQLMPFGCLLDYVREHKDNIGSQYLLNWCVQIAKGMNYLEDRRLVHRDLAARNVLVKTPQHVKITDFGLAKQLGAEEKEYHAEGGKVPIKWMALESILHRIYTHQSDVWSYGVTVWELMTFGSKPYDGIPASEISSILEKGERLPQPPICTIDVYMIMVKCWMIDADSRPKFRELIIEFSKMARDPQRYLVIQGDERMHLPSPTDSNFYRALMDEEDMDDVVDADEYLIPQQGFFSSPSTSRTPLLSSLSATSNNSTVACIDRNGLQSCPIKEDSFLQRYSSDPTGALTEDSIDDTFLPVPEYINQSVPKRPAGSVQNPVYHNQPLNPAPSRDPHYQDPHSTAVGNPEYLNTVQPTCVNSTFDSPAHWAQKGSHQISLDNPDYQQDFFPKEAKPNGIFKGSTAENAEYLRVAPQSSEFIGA

QSK = biological target: T3, QSK (Homo sapiens, UniProt Q9Y2K2)
T3 construct: purchased Eurofins DiscoverX Corporation (KINOMEscan screening service)

SgK110 = biological target: T4, SgK110 (Homo sapiens, UniProt P0C264)
T4 construct: purchased Eurofins DiscoverX (KINOMEscan service)
T4 sequence (P0C264 whole entry): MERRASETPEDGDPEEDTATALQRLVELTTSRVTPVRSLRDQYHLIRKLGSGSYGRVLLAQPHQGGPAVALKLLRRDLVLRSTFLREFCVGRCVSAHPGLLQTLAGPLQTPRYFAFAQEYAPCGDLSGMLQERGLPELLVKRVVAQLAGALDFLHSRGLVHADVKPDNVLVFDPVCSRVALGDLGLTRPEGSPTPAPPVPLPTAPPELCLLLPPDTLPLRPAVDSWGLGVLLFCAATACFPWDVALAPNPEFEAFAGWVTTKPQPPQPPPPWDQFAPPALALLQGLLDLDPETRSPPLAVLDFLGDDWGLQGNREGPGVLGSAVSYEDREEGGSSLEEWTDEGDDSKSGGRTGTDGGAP

TNK2 = biological target: T5, TNK2 (Homo sapiens, UniProt Q07912)
T5 construct: purchased Eurofins DiscoverX Corporation

PRKCI = PRKCI (Homo sapiens, UniProt P41743)
PDGFRA = biological target: T6, PDGFRA (Homo sapiens, UniProt P16234)
T6 construct: purchased Eurofins DiscoverX Corporation (KINOMEscan)

AURKA = AURKA (Homo sapiens, UniProt O14965)
NDR2 = NDR2 (Homo sapiens, UniProt Q9Y2H1)
NDR2, sequence (Q9Y2H1 whole entry): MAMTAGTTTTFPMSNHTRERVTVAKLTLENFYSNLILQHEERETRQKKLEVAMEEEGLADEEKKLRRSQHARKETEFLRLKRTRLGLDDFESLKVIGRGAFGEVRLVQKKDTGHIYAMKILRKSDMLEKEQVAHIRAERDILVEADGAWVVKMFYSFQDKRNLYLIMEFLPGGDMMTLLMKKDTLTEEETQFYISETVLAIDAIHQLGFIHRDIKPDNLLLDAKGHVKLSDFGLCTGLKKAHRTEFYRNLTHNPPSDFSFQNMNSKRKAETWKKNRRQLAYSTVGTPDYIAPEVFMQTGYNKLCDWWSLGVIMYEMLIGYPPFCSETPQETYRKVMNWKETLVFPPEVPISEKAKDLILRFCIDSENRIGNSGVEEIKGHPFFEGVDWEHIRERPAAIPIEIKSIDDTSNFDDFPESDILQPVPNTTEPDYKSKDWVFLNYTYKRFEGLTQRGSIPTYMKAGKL

[1] = biological target: JAK2(JH1domain-catalytic) (Homo sapiens, UniProt O60674)
JAK2(JH1domain-catalytic), sequence (O60674 849-1124 limits assumed): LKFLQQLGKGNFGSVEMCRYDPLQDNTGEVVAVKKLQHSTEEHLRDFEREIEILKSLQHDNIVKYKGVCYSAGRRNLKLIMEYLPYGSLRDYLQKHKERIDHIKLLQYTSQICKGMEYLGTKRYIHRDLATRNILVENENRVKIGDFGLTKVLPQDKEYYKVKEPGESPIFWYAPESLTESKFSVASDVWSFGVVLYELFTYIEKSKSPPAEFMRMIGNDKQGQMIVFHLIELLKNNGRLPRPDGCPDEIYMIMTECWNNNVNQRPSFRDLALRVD

TTK = biological target: T7, TTK (Homo sapiens, UniProt P33981)
T7 construct: purchased Eurofins DiscoverX Corporation

EPHA3 = biological target: T8, EPHA3 (Homo sapiens, UniProt P29320)
T8 construct: purchased Eurofins DiscoverX (KINOMEscan service)

JNK3 = JNK3 (Homo sapiens, UniProt P53779)
ERK2 = biological target: T9, ERK2 (Homo sapiens, UniProt P28482)
T9 construct: purchased Eurofins DiscoverX Corporation

EIF2AK1 = biological target: T10, EIF2AK1 (Homo sapiens, UniProt Q9BQI3)
T10 construct: purchased Eurofins DiscoverX (KINOMEscan service)

TIE2 = biological target: T11, TIE2 (Homo sapiens, UniProt Q02763)
T11 construct: purchased Eurofins DiscoverX Corporation

TGFBR1 = biological target: T12, TGFBR1 (Homo sapiens, UniProt P36897)
T12 construct: purchased Eurofins DiscoverX Corporation

IGF1R = IGF1R (Homo sapiens, UniProt P08069)
MEK3 = MEK3 (Homo sapiens, UniProt P46734)
EPHB4 = biological target: T13, EPHB4 (Homo sapiens, UniProt P54760)
T13 construct: purchased Eurofins DiscoverX (KINOMEscan service)

NIK = biological target: T14, NIK (Homo sapiens, UniProt Q99558)
T14 construct: purchased Eurofins DiscoverX Corporation (KINOMEscan)

GSK3B = biological target: T15, GSK3B (Homo sapiens, UniProt P49841)
T15 construct: purchased Eurofins DiscoverX Corporation

PKNB(M. tuberculosis) = PKNB(M. tuberculosis) (Mycobacterium tuberculosis, UniProt P9WI81)
[2] = biological target: T16, ABL1(T315I)-nonphosphorylated (Homo sapiens, UniProt P00519, T315I)
T16 construct: purchased Eurofins DiscoverX Corporation

SBK1 = biological target: T17, SBK1 (Homo sapiens, UniProt Q52WX2)
T17 construct: purchased Eurofins DiscoverX (KINOMEscan service)

[3] = biological target: T18, ABL1(Q252H)-phosphorylated (Homo sapiens, UniProt P00519, Q252H)
T18 construct: purchased Eurofins DiscoverX Corporation

LZK = LZK (Homo sapiens, UniProt O43283)
LZK, sequence (O43283 whole entry): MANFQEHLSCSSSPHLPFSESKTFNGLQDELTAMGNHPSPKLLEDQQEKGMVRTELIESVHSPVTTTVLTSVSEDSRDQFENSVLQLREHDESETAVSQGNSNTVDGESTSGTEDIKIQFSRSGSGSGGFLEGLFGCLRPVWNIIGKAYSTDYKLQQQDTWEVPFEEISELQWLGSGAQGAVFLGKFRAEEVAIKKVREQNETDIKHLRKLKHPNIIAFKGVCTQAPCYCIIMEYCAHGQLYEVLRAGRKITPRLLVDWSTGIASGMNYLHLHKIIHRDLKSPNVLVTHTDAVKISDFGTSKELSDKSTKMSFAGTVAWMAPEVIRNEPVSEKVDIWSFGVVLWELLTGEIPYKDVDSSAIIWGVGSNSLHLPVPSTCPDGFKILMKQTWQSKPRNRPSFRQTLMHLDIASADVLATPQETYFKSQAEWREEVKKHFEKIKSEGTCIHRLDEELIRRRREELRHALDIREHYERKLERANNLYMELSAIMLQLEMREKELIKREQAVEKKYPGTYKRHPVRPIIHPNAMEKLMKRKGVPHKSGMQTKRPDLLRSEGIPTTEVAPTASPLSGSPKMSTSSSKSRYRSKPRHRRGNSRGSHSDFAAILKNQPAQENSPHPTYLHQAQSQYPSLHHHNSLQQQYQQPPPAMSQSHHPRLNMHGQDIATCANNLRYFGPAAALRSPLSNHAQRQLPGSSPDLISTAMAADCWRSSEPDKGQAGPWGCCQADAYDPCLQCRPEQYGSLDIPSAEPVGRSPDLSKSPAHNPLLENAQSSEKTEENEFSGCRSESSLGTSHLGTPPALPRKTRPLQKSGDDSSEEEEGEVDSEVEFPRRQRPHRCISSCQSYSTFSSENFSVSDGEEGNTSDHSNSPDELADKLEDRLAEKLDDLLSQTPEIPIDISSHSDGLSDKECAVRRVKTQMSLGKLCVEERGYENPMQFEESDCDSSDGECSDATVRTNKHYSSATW

WNK4 = biological target: T19, WNK4 (Homo sapiens, UniProt Q96J92)
T19 construct: purchased Eurofins DiscoverX

IRAK1 = IRAK1 (Homo sapiens, UniProt P51617)
GRK3 = biological target: T20, GRK3 (Homo sapiens, UniProt P35626)
T20 construct: purchased Eurofins DiscoverX Corporation

BRAF = BRAF (Homo sapiens, UniProt P15056)
TBK1 = biological target: T21, TBK1 (Homo sapiens, UniProt Q9UHD2)
T21 construct: purchased Eurofins DiscoverX Corporation

CDK4-cyclinD1 = CDK4-cyclinD1 (Homo sapiens, UniProt P11802)
PCTK2 = biological target: T22, PCTK2 (Homo sapiens, UniProt Q00537)
T22 construct: purchased Eurofins DiscoverX Corporation (KINOMEscan)
T22 sequence (Q00537 whole entry): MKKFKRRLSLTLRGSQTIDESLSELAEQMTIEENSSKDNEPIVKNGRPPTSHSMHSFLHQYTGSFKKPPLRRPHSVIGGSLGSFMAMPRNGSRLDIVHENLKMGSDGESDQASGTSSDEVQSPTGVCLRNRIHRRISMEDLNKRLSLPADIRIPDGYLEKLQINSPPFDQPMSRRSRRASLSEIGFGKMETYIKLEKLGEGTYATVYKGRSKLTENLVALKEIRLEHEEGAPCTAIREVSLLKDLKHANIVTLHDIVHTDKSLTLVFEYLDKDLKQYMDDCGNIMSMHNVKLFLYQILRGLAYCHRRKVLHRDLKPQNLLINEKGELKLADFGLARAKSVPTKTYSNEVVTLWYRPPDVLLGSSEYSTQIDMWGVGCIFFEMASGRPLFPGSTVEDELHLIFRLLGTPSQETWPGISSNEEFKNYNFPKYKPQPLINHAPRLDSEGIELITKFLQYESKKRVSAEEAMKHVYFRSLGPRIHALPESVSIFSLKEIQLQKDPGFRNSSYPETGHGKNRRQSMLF

p38-gamma = biological target: T23, p38-gamma (Homo sapiens, UniProt P53778)
T23 construct: purchased Eurofins DiscoverX Corporation (KINOMEscan)
T23 sequence (P53778 whole entry): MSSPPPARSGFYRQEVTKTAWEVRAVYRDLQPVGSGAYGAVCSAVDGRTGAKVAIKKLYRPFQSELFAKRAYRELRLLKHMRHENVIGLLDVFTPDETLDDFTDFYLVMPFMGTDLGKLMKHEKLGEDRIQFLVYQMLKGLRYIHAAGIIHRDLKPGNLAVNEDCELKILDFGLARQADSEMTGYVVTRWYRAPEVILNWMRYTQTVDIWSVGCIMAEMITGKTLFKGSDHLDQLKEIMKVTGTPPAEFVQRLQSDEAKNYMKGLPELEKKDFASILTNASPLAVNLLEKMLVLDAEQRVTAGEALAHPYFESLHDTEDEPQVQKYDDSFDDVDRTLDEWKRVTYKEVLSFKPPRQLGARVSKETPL

PLK1 = PLK1 (Homo sapiens, UniProt P53350)
EGFR(S752-1759del) = biological target: T24, EGFR(S752-1759del) (Homo sapiens, UniProt P00533, DEL752-759)
T24 construct: purchased Eurofins DiscoverX (KINOMEscan service)
T24 sequence (P00533 with tags, fused parts or gaps DEL752-759 limits assumed): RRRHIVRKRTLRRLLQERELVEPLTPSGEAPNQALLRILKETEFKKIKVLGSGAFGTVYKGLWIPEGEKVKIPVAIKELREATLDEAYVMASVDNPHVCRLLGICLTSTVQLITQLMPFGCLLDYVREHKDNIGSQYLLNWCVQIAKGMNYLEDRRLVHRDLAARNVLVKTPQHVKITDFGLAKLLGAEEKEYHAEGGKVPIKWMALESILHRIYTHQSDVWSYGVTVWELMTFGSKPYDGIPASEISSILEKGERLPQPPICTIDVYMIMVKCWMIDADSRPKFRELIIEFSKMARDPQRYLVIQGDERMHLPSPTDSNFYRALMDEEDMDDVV

T1 sequence (Q96Q40 whole entry): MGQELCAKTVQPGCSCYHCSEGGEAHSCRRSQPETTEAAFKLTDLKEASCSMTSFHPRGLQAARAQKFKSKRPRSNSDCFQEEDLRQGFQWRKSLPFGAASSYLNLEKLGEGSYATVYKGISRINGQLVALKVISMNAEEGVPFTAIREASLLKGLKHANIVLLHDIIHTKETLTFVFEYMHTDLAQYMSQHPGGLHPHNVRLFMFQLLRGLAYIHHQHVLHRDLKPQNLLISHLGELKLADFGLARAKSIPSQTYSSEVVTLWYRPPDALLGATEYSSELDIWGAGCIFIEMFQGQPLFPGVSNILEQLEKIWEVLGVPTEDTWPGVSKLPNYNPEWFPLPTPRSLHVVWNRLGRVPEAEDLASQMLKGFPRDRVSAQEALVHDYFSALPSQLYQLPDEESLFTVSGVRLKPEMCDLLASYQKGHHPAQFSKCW

## C=CC(=O)Nc1ccc(OC)c(Nc2cc(-c3[nH]c(CC)nc3-c3cccc(NC(=O)c4cccc5c4NC(=O)c4ccccc4N5)c3)ccn2)c1 [Compound 4, N-(3-(5-(2-((5-Acrylamido-2-methoxyphenyl)amino)pyridin-4-yl)-2-ethyl-1H-imidazol-4-yl)phenyl)-11-oxo-10,11-dihydro-5H-dibenzo[b,e][1,4]diazepine-9-carboxamide]
PFTAIRE2
  remaining binding at 1 µM: 84%
MET
  remaining binding at 1 µM: 69%
EGFR(L861Q)
  remaining binding at 1 µM: 2.7%
QSK
  remaining binding at 1 µM: 100%
SgK110
  remaining binding at 1 µM: 100%
TNK2
  remaining binding at 1 µM: 3.8%
PRKCI
  remaining binding at 1 µM: 100%
PDGFRA
  remaining binding at 1 µM: 69%
AURKA
  remaining binding at 1 µM: 90%
NDR2
  remaining binding at 1 µM: 77%
[1]
  remaining binding at 1 µM: 86%
TTK
  remaining binding at 1 µM: 72%
EPHA3
  remaining binding at 1 µM: 81%
JNK3
  remaining binding at 1 µM: 53%
ERK2
  remaining binding at 1 µM: 100%
EIF2AK1
  remaining binding at 1 µM: 75%
TIE2
  remaining binding at 1 µM: 71%
TGFBR1
  remaining binding at 1 µM: 75%
IGF1R
  remaining binding at 1 µM: 90%
MEK3
  remaining binding at 1 µM: 100%
EPHB4
  remaining binding at 1 µM: 100%
NIK
  remaining binding at 1 µM: 100%
GSK3B
  remaining binding at 1 µM: 100%
PKNB(M. tuberculosis)
  remaining binding at 1 µM: 97%
[2]
  remaining binding at 1 µM: 98%
SBK1
  remaining binding at 1 µM: 84%
[3]
  remaining binding at 1 µM: 90%
LZK
  remaining binding at 1 µM: 90%
WNK4
  remaining binding at 1 µM: 85%
IRAK1
  remaining binding at 1 µM: 85%
GRK3
  remaining binding at 1 µM: 100%
BRAF
  remaining binding at 1 µM: 90%
TBK1
  remaining binding at 1 µM: 95%
CDK4-cyclinD1
  remaining binding at 1 µM: 94%
PCTK2
  remaining binding at 1 µM: 100%
p38-gamma
  remaining binding at 1 µM: 100%
PLK1
  remaining binding at 1 µM: 50%
EGFR(S752-1759del)
  remaining binding at 1 µM: 6%
